Values of other authors in US11883378B2, “Hydrogel formulations and methods and devices for focal administration of the same” (Pykus Therapeutics, Inc., priority 2021, dated 2024).
≈ marks a conversion by molar mass, not a printed value.

VEGF, sequence (P15692 207-311 limits assumed): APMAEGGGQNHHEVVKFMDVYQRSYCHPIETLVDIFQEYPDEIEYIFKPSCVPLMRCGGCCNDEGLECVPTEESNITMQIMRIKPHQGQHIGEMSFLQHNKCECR

Row | solubility in water [µg/mL] | Compound | tolerability of intravitreal injection (VEGF; dose of 1.25 mg) | effective dose in the vitreous (VEGF; maintained by monthly repetitive intravitreal injections) [µg/mL]
1 | – | Bevacizumab: anti-VEGF monoclonal antibody (large protein) with a molecular weight of ~150 kD | well tolerated | ~1
2 | ~1 (≈ 1.24 µM) | C=CC[C@@H]1/C=C(\C)C[C@H](C)C[C@H](OC)[C@H]2O[C@@](O)(C(=O)C(=O)N3CCCC[C@H]3C(=O)O[C@H](/C(C)=C/[C@@H]3CC[C@@H](O)[C@H](OC)C3)[C@H](C)[C@@H](O)CC1=O)[C@H](C)C[C@@H]2OC [Tacrolimus] | – | –
